Source: BigSolDB 2.1

Cl.N=C(N)N
solubility (mole fraction)
Conditions | 278.15 K | 283.15 K | 288.15 K | 293.15 K | 298.15 K | 303.15 K | 308.15 K | 313.15 K | 318.15 K | 323.15 K
in 2-butoxyethanol | 0.104 | 0.111 | 0.126 | 0.138 | 0.153 | 0.169 | 0.185 | 0.201 | 0.216 | 0.236
in 2-ethoxyethanol | 0.252 | 0.263 | 0.275 | 0.284 | 0.296 | 0.308 | 0.321 | 0.334 | 0.349 | 0.362
in 2-methoxyethanol | 0.293 | 0.302 | 0.312 | 0.323 | 0.333 | 0.345 | 0.355 | 0.368 | 0.381 | 0.394
in 2-propoxyethanol | 0.158 | 0.172 | 0.185 | 0.2 | 0.216 | 0.232 | 0.247 | 0.263 | 0.28 | 0.298
in DMAc | 0.265 | 0.283 | 0.302 | 0.321 | 0.34 | 0.358 | 0.376 | 0.394 | 0.415 | 0.434
in DMF | 0.326 | 0.345 | 0.368 | 0.384 | 0.402 | 0.42 | 0.441 | 0.456 | 0.476 | 0.495
in NMP | 0.116 | 0.128 | 0.142 | 0.154 | 0.17 | 0.185 | 0.201 | 0.216 | 0.236 | 0.253
in ethanol | 0.0832 | 0.0916 | 0.1 | 0.108 | 0.117 | 0.128 | 0.139 | 0.152 | 0.163 | 0.172
in isopropanol | 0.0552 | 0.0623 | 0.0699 | 0.0803 | 0.0886 | 0.0991 | 0.11 | 0.122 | 0.135 | 0.149
in methanol | 0.156 | 0.169 | 0.179 | 0.191 | 0.202 | 0.214 | 0.227 | 0.239 | 0.253 | 0.265
in n-propanol | 0.0373 | 0.0447 | 0.0493 | 0.0571 | 0.066 | 0.0733 | 0.083 | 0.0939 | 0.103 | 0.115
